Results reported in paper PMC539285, “Anti-Plasmodium activity of ceramide analogs” (Malaria Journal, 2004).

What was measured:
[1] = system: malaria-induced anion channel; test: Malaria-induced anion channel activity, whole-cell patch-clamp; assay type: cell-based, Plasmodium falciparum; conditions: infected erythrocytes, 24 hours, 250 nM AD2646 or 10 μM PPMP, whole-cell patch-clamp (unpublished data)
Excerpt: Sphingolipids preferentially interact with cholesterol in membranes, especially in detergent-resistant microdomains (DRMs or rafts). Rafts have been described in Plasmodium and are involved, at least, in the uptake of erythrocyte raft proteins and maintenance of the parasitophorous vacuole containing the parasite, inside the erythrocyte. This interaction implies : 1) van der Waals interactions between the saturated acyl chain and sphingoid moiety of sphingolipids and the rigid planar tetracyclic rings of cholesterol and 2) hydrogen bonds between the 3-β hydroxyl group of cholesterol and the fatty acyl carbonyl group resulting from the amide linkage with the sphingoid moiety. The amide-linked fatty acid function seems to have a profound stabilizing effect on cholesterol-sphingolipid interactions. It could be hypothesized that in a membrane context, methylene analogs might have a destabilizing effect on the cholesterol-sphingolipid interactions and, in consequence, modifications of membrane properties. Indeed, P. falciparum growth is characterized by a setting up of new permeabilities of the infected-erythrocyte membrane. Although the biochemical nature of these new permeabilities is still unknown, they have been characterized from an electrophysiological point of view and involve a malaria-induced anion channel. […]

[2] = system: tubovesicular network of P. falciparum; test: Tubovesicular network formation, BODIPY-FL-C5-ceramide fluorescence microscopy; assay type: cell-based, Plasmodium falciparum
Experimental: Infected erythrocytes treated with or without ceramide analogs were incubated for 30 min, at 37°C, in culture medium containing 10 μM BODIPY-FL-C5-ceramide, washed three times with culture medium without serum and fixed overnight, at 4°C, in 3.7% formaldehyde/0.05% glutaraldehyde. Cells were mounted on poly-L-lysine coated slides and viewed using a Nikon Eclipse TE 300 DV inverted microscope with an 100X oil objective mounted on a piezzo electric device using appropriate fluorescence emission filters. Image acquisition (z-series) was performed with a back illuminated cooled detector (CCD EEV: NTE/CCD-1024-EB, Roper Scientific, France) using a 0.2 μm step. Data acquisition and image deconvolution process were performed with Metamorph software (Universal Imaging Corporation, Roper Scientific, France). The images presented correspond to the maximum intensity projection of the deconvoluted z-series.

[3] = system: chloroquine-resistant strain FcB1 of P. falciparum; test: Anti-Plasmodium activity, [3H]hypoxanthine microdilution on asynchronous cultures; assay type: cell-based, Plasmodium falciparum; conditions: Plasmodium falciparum; strain FcB1, asynchronous cultures, n = 3; read-out: IC50
Experimental: P. falciparum strains (FcB1/Colombia, K1/Thailand, F32/Tanzania, W2/Indochina) were maintained in continuous culture on human erythrocytes in RPMI medium containing 7% (v/v) heat-inactivated human serum under an atmosphere of 3% CO2, 6% O2, 91% N2, at 37°C, as described by Trager and Jensen. Parasite synchronization was performed successively by treatment with 5% (w/v) sorbitol and by concentration in gelatin solution as previously described.
Drug susceptibility assays were performed using a modification of the semi automated microdilution technique of Desjardins et al.. Stock solutions of test compounds were prepared in DMSO. Drug solutions were serially diluted twofold with 100 μl culture medium in 96-well plates. Asynchronous parasite cultures (100 μl, 1 % parasitemia and 1 % final hematocrite) were added to each well and incubated for 24 hours at 37°C prior to the addition of 0.5 μCi of [^3H] hypoxanthine (Amersham, France, 1 to 5 Ci.mmol/ml) per well. After a further incubation of 24 hour, plates were frozen and thawed. Cell lysates were then collected onto glass-filter papers and counted in a liquid scintillation spectrometer. The growth inhibition for each drug concentration was determined by comparison of the radioactivity incorporated in the treated culture with that in the control culture (having the same final % of DMSO) maintained on the same plate. The concentration causing 50% growth inhibition (IC50) and 90% growth (IC90) were obtained from the drug concentration-response curve and the results were expressed as the means ± the standard deviations determined from several independent experiments.

P. falciparum = system: P. falciparum; design: method as in PMID 7568097; conditions: synchronized cultures at the ring stage; read-out: IC50 previously reported; cited from earlier work
[4] = system: P. falciparum synchronized cultures; test: Parasite stage-specific inhibitory effects and reversibility (Giemsa-stained smears); assay type: cell-based, Plasmodium falciparum; conditions: rings, 24 hours incubation with 5 μM, then drug removal (data not shown)
[5] = system: P. falciparum sphingomyelin synthase activity; test: Sphingomyelin synthase activity assay in trophozoite cultures (NBD-C6-ceramide); assay type: cell-based, Plasmodium falciparum; conditions: trophozoites 20-30 h, 0-500 μM drug, 10 μM NBD-C6-ceramide, 60 min, 37°C
Experimental: SPM synthase activity was measured as described by Haldar et al.. Briefly, assays were performed on P. falciparum cultures at the trophozoite stage (20–30 h old parasites). 400 μl of culture (1 × 10^8 parasites) were incubated for 60 min at 37°C with 10 μM NBD-C6-ceramide and 0 to 500 μM PPMP or AD2646. Cells were then lysed by freezing and thawing of the culture. Lipids were extracted by a modification of the method of Bligh and Dyer. To each sample, three volumes of a CH3OH/CHCl3 mixture (1:2, v:v) were added and the mixture vortexed for one min. Organic and aqueous phases were separated by centrifugation (12,000 × g, five min) and the organic phase was dried. Lipids were dissolved in 15 μl ethanol and analysed by thin layer chromatography on HPTLC plates (Silica gel 60 F254, Merck, Darmstadt, Germany) in CH3OH/[…]/NH4OH (75:25:4, v:v:v). For qualitative analyses, the fluorescent lipids were detected under UV and for quantitative analyses, the fluorescent lipid spots were scraped, eluted in one ml methanol and quantified at an excitation of 470 nm and an emission of 530 nm in a spectrofluorometer. The percentage of SPM synthase activity for each drug concentration was determined by comparison of the fluorescence quantified in the analog-treated culture with that in the control culture (without drug).

human MRC-5 cells = test: Cytotoxicity test upon human embryonic cells (MTT); assay type: cell-based; conditions: Homo sapiens, MRC5, 120 h; MRC-5, five days, MTT; mean of three experiments
Experimental: (§1) A human diploid embryonic lung cell line (MRC-5, Bio-Whittaker 72211D) was used to assess the cytotoxic effects towards eukaryotic host cells. MRC-5 cells were seeded at 5,000 cells per well in 100 μl. After 24 hours, the cells were washed and two-fold dilutions of the drug were added in 200 μl standard culture medium (RPMI medium + 5% fetal calf serum) and maintained for five days under 5% CO2 atmosphere. The final DMSO concentration in the culture remained below 0.1%. Untreated cultures were included as controls. The cytotoxicity was determined using the colorimetric MTT assay according to the manufacturer's recommendations (Cell proliferation kit I, Roche Applied Science, France) and scored as a percentage of reduction in absorption at 540 nm of treated cultures versus untreated control cultures. […] The results were expressed as the mean ± the standard deviations determined from several independent experiments. The index of selectivity was defined as the ratio of the IC50 value on MRC-5 to that of P. falciparum.

[6] = Cytotoxicity test upon human embryonic cells (MTT); assay type: cell-based; conditions: human, MRC-5 human diploid embryonic lung cells; MRC-5, five days, MTT; mean of three experiments
Experimental: as §1

With `CCCCCCCCCCCCCCCC(=O)NC(CN1CCOCC1)C(O)c1ccccc1` (stereo not drawn) [PPMP, d,1-threo-1-phenyl-2-palmitoylamino-3-morpholino-1-propanol, reference compound] the “induced anion channel activity” value [1] was “did not modulate significantly the induced channel activity”, the TVN formation ([2]; rings incubated 24 hours with 60 nM AD2646 or 5 μM PPMP) was “no TVN was observed” and the ring development ([2]; rings, 24 hours, 5 μM) was “totally inhibited”. For the same compound, the IC50 [3] was 9 ± 1.7 µM, the IC50 (P. falciparum) was 0.85 µM and the “reversibility of ring-stage block” value [4] was “recovered to a normal growth after drug removal”. For the same compound, the “inhibition of SPM synthase activity (shape of curve)” value [5] was “biphasic inhibition curve”, the IC50 (human MRC-5 cells) was 7.5 µM and the IC90 at 5 days [6] was 12.4 µM.
